System: NanoLuc
Test: NanoLuc luciferase reporter expression from constitutive promoters and RBSs integrated with pNBU2
Format: cell-based, B. thetaiotaomicron
Details: for Average Luminescence (RLU/CFU): RBS combined with promoter PBT1311, NanoLuc reporter, three biological replicates
Source text: FIGS. 1A-1G. Genetic parts to control expression in B. thetaiotaomicron. (FIG. 1A) The ranges of gene expression are shown for the different gene regulation systems provided herein. (FIG. 1B) IntN2 catalyzes stable integration of pNBU2-based expression constructs into one of two attBT2 sites in the B. thetaiotaomicron genome. The two attBT2 sites (attBT2-1 at nucleotide (nt) 6,217,227 and attBT2-2 at nt 6,138,320) are in the 3′ ends of tRNA^Ser genes (BT_t71 and BT_t70, respectively). (FIG. 1C) Constitutive promoters and ribosome binding sites for the construction of gene expression libraries. The putative −33 and −7 regions of the PBT1311 promoter, the Shine-Delgarno sequence, and the start codon are indicated by black boxes. Numbers below the black boxes represent nucleotide locations relative the PBT1311 transcription start site. The 26 nt sequences introduced in the PAM promoters are shown (see also FIGS. 6A-6B). Numbers at the edges of the boxes indicate the PBT1311 nucleotides replaced or the insertion site within the promoter. The location of residues randomized in the rpiL* RBS library are indicated with gray arrows (for library A: nt −14, −13, −12; for library B: nt −21, −18, −15; and for library C: nt −17, −16, −11; nt numbering is relative to the translation start site). (FIG. 1D) Activity was measured for a set of constitutive promoters and their cognate RBSs. Furthermore, a set of constitutive promoters (PBT1311, PAM1, PAM2, PAM3, PAM4) was combined with RBSs of varying strengths. Gene expression was measured using a luciferase reporter (NanoLuc). (FIG. 1E) Three large RBS libraries were constructed and combined with promoter PBT1311 to span 10^3-fold in gene expression. For reference, the parent rpiL* RBS is indicated with a black arrow. For D and E, error bars represent the standard deviation of three independent biological replicates made on separate days. (FIG. 1F) The strength of each RBS was compared to the predicted free energy of folding for the mRNA (ΔGfold,). (FIG. 1G) Strong (SEQ ID NO: 210) and weak (SEQ ID NO: 211) consensus sequences for the rpiL* −21 to −11 RBS region targeted by mutagenesis (residue locations are stated relative to the translation start site) are provided. Frequency logos were generated for the 11 strongest and 11 weakest RBSs by comparing the frequency of each nucleotide at each position in that group with the frequency of that nucleotide in that position in the full library. Position −20 and −19 were not randomized and are thus are not shown in the frequency logos.
All genetic parts in this study were characterized using the integration vector pNBU2 to ensure genetic stability of the constructs (FIG. 1B). The pNBU2 plasmid encodes the intN2 tyrosine integrase, which mediates sequence-specific recombination between the attN site of pNBU2 and one of two attBT sites located in the 3′ ends of the two tRNA^Ser genes, BT_t70 and BT_t71, on the B. thetaiotaomicron chromosome (FIG. 1B). Insertion of the pNBU2 plasmid inactivates the tRNA^Ser gene, and simultaneous insertion into both BT_t70 and BT_t71 is unlikely due to the essentiality of tRNA^Ser. pNBU2-based vectors have been used for single-copy complementation in B. thetaiotaomicron in in vitro studies (Koropatkin N M et al. Nat. Rev. Microbiol. 10:323-35, 2012) and in vivo mouse models (Martens E C et al. Cell Host Microbe 4:447-57, 2008).
B. thetaiotaomicron genetic parts were characterized with NanoLuc luciferase (Hall M P et al. ACS Chem. Biol. 7:1848-1857, 2012), which is a small (19 kDa) modified shrimp luciferase. Efforts to use members of the green fluorescent protein family and a FMN-based fluorescent reporter were not successful. NanoLuc oxidizes the exogenously-added substrate furimazine to produce glow-type bioluminescence (Emax=460 nm) with a signal half-life of 2 hr. […]

| Substance | Average Luminescence (RLU/CFU) | Expression Level (RLU/CFU) (set of 8 RBSs, under control of PBT1311, NanoLuc reporter) |
| --- | --- | --- |
| C29: RBS, SEQ ID NO: 86 (DNA TCCCGCATTTTAAAATAAAATAAATTATTTTTTTATTTAAACGAAT; chemistry not fully specified) | 0.008233 |  |
| C35: RBS, SEQ ID NO: 99 (DNA TCCCGCATTTTAAAATAAAATAAATTATTCCTTTAATTAAACGAAT; chemistry not fully specified) | 0.005815 |  |
| C21: RBS, SEQ ID NO: 54 (DNA TCCCGCATTTTAAAATAAAATAAATTATTGGTTTAATTAAACGAAT; chemistry not fully specified) | 0.01602 |  |
| B39: RBS, SEQ ID NO: 133 (DNA TCCCGCATTTTAAAATAAAATAAATCATCTAGTTAATTAAACGAAT; chemistry not fully specified) | 0.001255 |  |
| C22: RBS, SEQ ID NO: 57 (DNA TCCCGCATTTTAAAATAAAATAAATTATTGTTTTAATTAAACGAAT; chemistry not fully specified) | 0.01508 |  |
| A5: RBS, SEQ ID NO: 32 (DNA TCCCGCATTTTAAAATAAAATAAATTATTTCTTTACTTAAACGAAT; chemistry not fully specified) | 0.02579 |  |
| A18: RBS, SEQ ID NO: 69 (DNA TCCCGCATTTTAAAATAAAATAAATTATTCATTTATTTAAACGAAT; chemistry not fully specified) | 0.01237 |  |
| C30: RBS, SEQ ID NO: 88 (DNA TCCCGCATTTTAAAATAAAATAAATTATTTATTTATTTAAACGAAT; chemistry not fully specified) | 0.008085 |  |
| B5: RBS, SEQ ID NO: 5 (DNA TCCCGCATTTTAAAATAAAATAAATTATATAATTAATTAAACGAAT; chemistry not fully specified) | 0.04825 |  |
| C37: RBS, SEQ ID NO: 102 (DNA TCCCGCATTTTAAAATAAAATAAATTATTGGTTTAGTTAAACGAAT; chemistry not fully specified) | 0.005598 |  |
| A2: RBS, SEQ ID NO: 15 (DNA TCCCGCATTTTAAAATAAAATAAATTATTTTTTTACTTAAACGAAT; chemistry not fully specified) | 0.03616 |  |
| B23: RBS, SEQ ID NO: 61 (DNA TCCCGCATTTTAAAATAAAATAAATAATCTATTTAATTAAACGAAT; chemistry not fully specified) | 0.01464 |  |
| B31: RBS, SEQ ID NO: 85 (DNA TCCCGCATTTTAAAATAAAATAAATGATCTAGTTAATTAAACGAAT; chemistry not fully specified) | 0.008534 |  |
| A43: RBS, SEQ ID NO: 131 (DNA TCCCGCATTTTAAAATAAAATAAATTATTCGTTTAATTAAACGAAT; chemistry not fully specified) | 0.001461 |  |
| B37: RBS, SEQ ID NO: 121 (DNA TCCCGCATTTTAAAATAAAATAAATCATATATTTAATTAAACGAAT; chemistry not fully specified) | 0.002567 |  |
| C51: RBS, SEQ ID NO: 136 (DNA TCCCGCATTTTAAAATAAAATAAATTATTATTTTATTTAAACGAAT; chemistry not fully specified) | 0.0006273 | 6.27E-04 |
| C23: RBS, SEQ ID NO: 60 (DNA TCCCGCATTTTAAAATAAAATAAATTATTGATTTACTTAAACGAAT; chemistry not fully specified) | 0.01469 |  |
| A22: RBS, SEQ ID NO: 78 (DNA TCCCGCATTTTAAAATAAAATAAATTATTGCTTTATTTAAACGAAT; chemistry not fully specified) | 0.009586 |  |

Reference: patent US11591604B2, “Gene expression in Bacteroides” (Massachusetts Institute of Technology, priority 2015, dated 2023)
